{"source": "patent US20230356105A1", "about": "“TETRAAZADODECANE BASED CHELATING AGENTS FOR SEPARATION OF RARE EARTH ELEMENTS AND METHOD THEREFOR” (Ustav Organicke Chemie a Biochemie AV CR V.V.I., priority 2020, published 2023)", "assay_type_in_all_cases": "physicochemical", "key": {"[1]": {"assay": "Separation of Y/Tb mixture by repeated precipitation using L2 (Example 14)", "conditions": "for Precipitate concentration [mM] Tb / Precipitate concentration [mM] Y: dissolved to 200 μL", "experimental": "The experiment was conducted according to Example 11) with 9 identical reaction mixtures containing Y, Tb, and compound L2. The experimental procedure was identical to that of Example 11). The resulting absolute concentrations of both metals in the supernatants and precipitates, as well as calculated values of separation factor Y/Tb according to the formula from Example 11), are summarized in Table 8. The average separation factor value was 3.34."}, "[2]": {"assay": "Separation of industrially relevant binary mixtures by precipitation using L1, L2 and L3 (Example 10)", "conditions": "supernatant", "experimental": "Analogous to Example 7), three sets of reaction mixtures with two metals and either compound L1, L2, or L3 were prepared in a 96-well plate with the following differences: each well was equipped with one PTFE-coated magnetic stir bar, the well plate was sealed with a silicon cover, and the reaction mixtures were stirred on a magnetic stirrer for 2 days at room temperature. Analogous to Example 7), the well plate was then centrifuged and concentrations of the metals were determined using ICP-OES. […] It is evident from the results that certain degrees of enrichment are achieved for very different combinations of metals, and that ligands L1, L2, and L3 have different selectivities for given combinations of metals."}, "[3]": {"assay": "Separation of Tb/Lu mixture by precipitation using L4 (Example 16)", "conditions": "for Precipitate concentration [mM] Lu / Precipitate concentration [mM] Tb: dissolved to 150 μL", "experimental": "The experiment was conducted according to Example 24, with 3 identical reaction mixtures containing Tb, Lu, and compound L4. The experimental procedure was identical to that of Example 24 with the difference being that the dissolution of the precipitate in 100 μL, 1 M HCl was achieved within several minutes. The resulting absolute concentrations of both metals in the supernatants and precipitates, as well as calculated values of the separation factor […] according to formula from Example 11), are summarized in Table 10. […] The average separation factor value was 27."}, "[4]": {"conditions": "group A, 1st precipitation, mean"}, "[5]": {"conditions": "group B, 2nd precipitation, mean"}}, "note": "“And” between values parts separate entries of the source, which are not always exact repeats. Identical values can stand only once. Like-named read-outs stand apart in the source and are kept apart here."}
{"smiles": "O=C(O)CN1CCNCCN(CC(=O)O)CCN(Cc2cc([N+](=O)[O-])ccc2O)CC1", "note": "[L2, 2,2′(4-(2-hydroxy-5-nitrobenzyl)-1,4,7,10-tetraazacyclododecane-1,7-diyl)Diacetic Acid]", "values": [{"measurement": "Supernatant concentration [mM] Tb", "setting": "[1]; group A, 1st precipitation", "value": "1.70 mM and 1.85 mM and 1.74 mM"}, {"measurement": "Supernatant concentration [mM] Y", "setting": "[1]; group A, 1st precipitation", "value": "4.25 mM and 4.36 mM and 4.12 mM"}, {"measurement": "Precipitate concentration [mM] Tb", "setting": "[1]; group A, 1st precipitation", "value": "8.05 mM and 7.82 mM and 7.70 mM"}, {"measurement": "Precipitate concentration [mM] Y", "setting": "[1]; group A, 1st precipitation", "value": "5.45 mM and 5.23 mM and 5.52 mM"}, {"measurement": "Precipitate concentration [mM] Tb", "setting": "[1]; [4]", "value": 7.86, "unit": "mM"}, {"measurement": "Precipitate concentration [mM] Y", "setting": "[1]; [4]", "value": 5.40, "unit": "mM"}, {"measurement": "Supernatant concentration [mM] Tb", "setting": "[1]; [4]", "value": 1.76, "unit": "mM"}, {"measurement": "Supernatant concentration [mM] Y", "setting": "[1]; [4]", "value": 4.24, "unit": "mM"}, {"measurement": "Supernatant concentration [mM] Tb", "setting": "[1]; group B, 2nd precipitation", "value": "0.79 mM and 1.15 mM and 0.97 mM"}, {"measurement": "Supernatant concentration [mM] Y", "setting": "[1]; group B, 2nd precipitation", "value": "1.42 mM and 1.52 mM and 1.48 mM"}, {"measurement": "Precipitate concentration [mM] Tb", "setting": "[1]; group B, 2nd precipitation", "value": "6.95 mM and 5.71 mM and 6.60 mM"}, {"measurement": "Precipitate concentration [mM] Y", "setting": "[1]; group B, 2nd precipitation", "value": "3.87 mM and 2.86 mM and 3.57 mM"}, {"measurement": "Precipitate concentration [mM] Tb", "setting": "[1]; [5]", "value": 6.42, "unit": "mM"}, {"measurement": "Precipitate concentration [mM] Y", "setting": "[1]; [5]", "value": 3.43, "unit": "mM"}, {"measurement": "Supernatant concentration [mM] Y", "setting": "[1]; [5]", "value": 1.47, "unit": "mM"}, {"measurement": "[mM] M1", "setting": "[2]; M1/M2=Eu/Y", "value": 1.363, "unit": "mM"}, {"measurement": "[mM] M2", "setting": "[2]; M1/M2=Eu/Y", "value": 2.814, "unit": "mM"}, {"measurement": "[mM] M1", "setting": "[2]; M1/M2=La/Ce", "value": 0.175, "unit": "mM"}, {"measurement": "[mM] M2", "setting": "[2]; M1/M2=La/Ce", "value": 0.158, "unit": "mM"}, {"measurement": "[mM] M1", "setting": "[2]; M1/M2=Nd/Ce", "value": 0.425, "unit": "mM"}, {"measurement": "[mM] M2", "setting": "[2]; M1/M2=Nd/Ce", "value": 0.779, "unit": "mM"}, {"measurement": "[mM] M1", "setting": "[2]; M1/M2=Nd/Dy", "value": 1.757, "unit": "mM"}, {"measurement": "[mM] M2", "setting": "[2]; M1/M2=Nd/Dy", "value": 1.970, "unit": "mM"}, {"measurement": "[mM] M1", "setting": "[2]; M1/M2=Nd/La", "value": 0.263, "unit": "mM"}, {"measurement": "[mM] M2", "setting": "[2]; M1/M2=Nd/La", "value": 0.128, "unit": "mM"}, {"measurement": "[mM] M1", "setting": "[2]; M1/M2=Nd/Pr", "value": 2.303, "unit": "mM"}, {"measurement": "[mM] M2", "setting": "[2]; M1/M2=Nd/Pr", "value": 2.352, "unit": "mM"}, {"measurement": "[mM] M1", "setting": "[2]; M1/M2=Nd/Tb", "value": 1.532, "unit": "mM"}, {"measurement": "[mM] M2", "setting": "[2]; M1/M2=Nd/Tb", "value": 1.438, "unit": "mM"}, {"measurement": "[mM] M1", "setting": "[2]; M1/M2=Pr/Ce", "value": 0.162, "unit": "mM"}, {"measurement": "[mM] M2", "setting": "[2]; M1/M2=Pr/Ce", "value": 0.171, "unit": "mM"}, {"measurement": "[mM] M1", "setting": "[2]; M1/M2=Pr/Dy", "value": 2.417, "unit": "mM"}, {"measurement": "[mM] M2", "setting": "[2]; M1/M2=Pr/Dy", "value": 2.422, "unit": "mM"}, {"measurement": "[mM] M1", "setting": "[2]; M1/M2=Pr/La", "value": 0.172, "unit": "mM"}, {"measurement": "[mM] M2", "setting": "[2]; M1/M2=Pr/La", "value": 0.163, "unit": "mM"}, {"measurement": "[mM] M1", "setting": "[2]; M1/M2=Tb/Dy", "value": 1.054, "unit": "mM"}, {"measurement": "[mM] M2", "setting": "[2]; M1/M2=Tb/Dy", "value": 2.708, "unit": "mM"}, {"measurement": "[mM] M1", "setting": "[2]; M1/M2=Tb/Eu", "value": 1.182, "unit": "mM"}, {"measurement": "[mM] M2", "setting": "[2]; M1/M2=Tb/Eu", "value": 0.956, "unit": "mM"}, {"measurement": "[mM] M1", "setting": "[2]; M1/M2=Tb/Pr", "value": 1.945, "unit": "mM"}, {"measurement": "[mM] M2", "setting": "[2]; M1/M2=Tb/Pr", "value": 2.156, "unit": "mM"}, {"measurement": "[mM] M1", "setting": "[2]; M1/M2=Tb/Y", "value": 1.615, "unit": "mM"}, {"measurement": "[mM] M2", "setting": "[2]; M1/M2=Tb/Y", "value": 2.812, "unit": "mM"}]}
{"smiles": "O=C(O)CN1CCNCCN(CC(=O)O)CCN(Cc2ccc(C(=O)O)cc2)CC1", "note": "[L3, 2,2′-(4-(4-carboxybenzyl)-1,4,7,10-tetraazacyklododekane-1,7-diyl)Diacetic Acid]", "values": [{"measurement": "[mM] M1", "setting": "[2]; M1/M2=Eu/Y", "value": 0.016, "unit": "mM"}, {"measurement": "[mM] M2", "setting": "[2]; M1/M2=Eu/Y", "value": 0.076, "unit": "mM"}, {"measurement": "[mM] M1", "setting": "[2]; M1/M2=La/Ce", "value": 0.111, "unit": "mM"}, {"measurement": "[mM] M2", "setting": "[2]; M1/M2=La/Ce", "value": 0.036, "unit": "mM"}, {"measurement": "[mM] M1", "setting": "[2]; M1/M2=Nd/Ce", "value": 0.000, "unit": "mM"}, {"measurement": "[mM] M2", "setting": "[2]; M1/M2=Nd/Ce", "value": 0.745, "unit": "mM"}, {"measurement": "[mM] M1", "setting": "[2]; M1/M2=Nd/Dy", "value": 0.000, "unit": "mM"}, {"measurement": "[mM] M2", "setting": "[2]; M1/M2=Nd/Dy", "value": 0.025, "unit": "mM"}, {"measurement": "[mM] M1", "setting": "[2]; M1/M2=Nd/La", "value": 0.000, "unit": "mM"}, {"measurement": "[mM] M2", "setting": "[2]; M1/M2=Nd/La", "value": 0.102, "unit": "mM"}, {"measurement": "[mM] M1", "setting": "[2]; M1/M2=Nd/Pr", "value": 0.000, "unit": "mM"}, {"measurement": "[mM] M2", "setting": "[2]; M1/M2=Nd/Pr", "value": 0.016, "unit": "mM"}, {"measurement": "[mM] M1", "setting": "[2]; M1/M2=Nd/Tb", "value": 0.008, "unit": "mM"}, {"measurement": "[mM] M2", "setting": "[2]; M1/M2=Nd/Tb", "value": 0.008, "unit": "mM"}, {"measurement": "[mM] M1", "setting": "[2]; M1/M2=Pr/Ce", "value": 0.060, "unit": "mM"}, {"measurement": "[mM] M2", "setting": "[2]; M1/M2=Pr/Ce", "value": 0.021, "unit": "mM"}, {"measurement": "[mM] M1", "setting": "[2]; M1/M2=Pr/Dy", "value": 0.018, "unit": "mM"}, {"measurement": "[mM] M2", "setting": "[2]; M1/M2=Pr/Dy", "value": 0.034, "unit": "mM"}, {"measurement": "[mM] M1", "setting": "[2]; M1/M2=Pr/La", "value": 0.014, "unit": "mM"}, {"measurement": "[mM] M2", "setting": "[2]; M1/M2=Pr/La", "value": 0.098, "unit": "mM"}, {"measurement": "[mM] M1", "setting": "[2]; M1/M2=Tb/Dy", "value": 0.010, "unit": "mM"}, {"measurement": "[mM] M2", "setting": "[2]; M1/M2=Tb/Dy", "value": 0.027, "unit": "mM"}, {"measurement": "[mM] M1", "setting": "[2]; M1/M2=Tb/Eu", "value": 0.018, "unit": "mM"}, {"measurement": "[mM] M2", "setting": "[2]; M1/M2=Tb/Eu", "value": 0.017, "unit": "mM"}, {"measurement": "[mM] M1", "setting": "[2]; M1/M2=Tb/Pr", "value": 0.015, "unit": "mM"}, {"measurement": "[mM] M2", "setting": "[2]; M1/M2=Tb/Pr", "value": 0.018, "unit": "mM"}, {"measurement": "[mM] M1", "setting": "[2]; M1/M2=Tb/Y", "value": 0.018, "unit": "mM"}, {"measurement": "[mM] M2", "setting": "[2]; M1/M2=Tb/Y", "value": 0.078, "unit": "mM"}]}
{"smiles": "O=C(O)CN1CCN(CC(=O)O)CCN(Cc2ccc3ccccc3c2)CCN(CC(=O)O)CC1", "note": "[L4, 2,2′,2″-(10-(naphthalene-2-ylmethyl)-1,4,7,10-tetraazacyklododekane-1,4,7-triyl)triacetic acid]", "values": [{"measurement": "Supernatant concentration [mM] Lu", "setting": "[3]", "value": "4.26 mM and 4.07 mM and 4.18 mM"}, {"measurement": "Supernatant concentration [mM] Tb", "setting": "[3]", "value": "1.08 mM and 0.93 mM and 1.19 mM"}, {"measurement": "Precipitate concentration [mM] Lu", "setting": "[3]", "value": "0.51 mM and 0.61 mM and 0.47 mM"}, {"measurement": "Precipitate concentration [mM] Tb", "setting": "[3]", "value": "3.74 mM and 3.73 mM and 3.28 mM"}, {"measurement": "Precipitate concentration [mM] Lu", "setting": "[3]; mean", "value": 0.53, "unit": "mM"}, {"measurement": "Precipitate concentration [mM] Tb", "setting": "[3]; mean", "value": 3.59, "unit": "mM"}, {"measurement": "Supernatant concentration [mM] Lu", "setting": "[3]; mean", "value": 4.17, "unit": "mM"}, {"measurement": "Supernatant concentration [mM] Tb", "setting": "[3]; mean", "value": 1.07, "unit": "mM"}]}
